Measurements reported in ChEMBL document CHEMBL1141186, “2-(Benzimidazol-2-yl)quinoxalines: a novel class of selective antagonists at human A(1) and A(3) adenosine receptors designed by 3D database searching” (J Med Chem, 2005).

Key:
Format in all cases: cell-based
Adenosine receptor A3 = biological target: T1, Adenosine receptor A3 (Homo sapiens, UniProt P0DMS8); assay: Displacement of [125I]AB-MECA from human adenosine A3 receptor expressed in CHO cells
T1 sequence (P0DMS8 whole entry): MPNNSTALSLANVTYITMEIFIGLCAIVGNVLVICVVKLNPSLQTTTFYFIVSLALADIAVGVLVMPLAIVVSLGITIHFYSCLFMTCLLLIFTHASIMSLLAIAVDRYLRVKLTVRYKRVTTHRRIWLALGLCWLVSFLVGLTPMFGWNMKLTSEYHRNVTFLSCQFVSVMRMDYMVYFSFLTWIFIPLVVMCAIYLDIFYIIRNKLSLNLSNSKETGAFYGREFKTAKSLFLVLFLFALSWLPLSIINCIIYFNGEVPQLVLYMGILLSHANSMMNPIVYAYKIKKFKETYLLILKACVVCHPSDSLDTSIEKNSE

Adenosine receptor A1 = biological target: T2, Adenosine receptor A1 (Homo sapiens, UniProt P30542); assay: Displacement of [3H]DPCPX from human adenosine A1 receptor expressed in CHO cells
T2 sequence (P30542 whole entry): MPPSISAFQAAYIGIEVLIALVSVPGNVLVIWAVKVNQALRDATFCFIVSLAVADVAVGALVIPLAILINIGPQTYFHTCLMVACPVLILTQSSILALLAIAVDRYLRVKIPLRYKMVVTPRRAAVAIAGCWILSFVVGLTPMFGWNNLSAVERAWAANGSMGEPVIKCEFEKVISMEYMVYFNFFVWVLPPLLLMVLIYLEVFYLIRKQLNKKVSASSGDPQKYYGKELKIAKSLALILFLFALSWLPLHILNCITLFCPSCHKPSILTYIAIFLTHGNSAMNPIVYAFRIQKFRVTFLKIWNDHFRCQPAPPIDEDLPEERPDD

Adenosine receptor A2a = Adenosine receptor A2a (Homo sapiens, UniProt P29274); assay: Displacement of [3H]NECA from human adenosine A2A receptor expressed in CHO cells
Adenosine receptor A2a, sequence (P29274 whole entry): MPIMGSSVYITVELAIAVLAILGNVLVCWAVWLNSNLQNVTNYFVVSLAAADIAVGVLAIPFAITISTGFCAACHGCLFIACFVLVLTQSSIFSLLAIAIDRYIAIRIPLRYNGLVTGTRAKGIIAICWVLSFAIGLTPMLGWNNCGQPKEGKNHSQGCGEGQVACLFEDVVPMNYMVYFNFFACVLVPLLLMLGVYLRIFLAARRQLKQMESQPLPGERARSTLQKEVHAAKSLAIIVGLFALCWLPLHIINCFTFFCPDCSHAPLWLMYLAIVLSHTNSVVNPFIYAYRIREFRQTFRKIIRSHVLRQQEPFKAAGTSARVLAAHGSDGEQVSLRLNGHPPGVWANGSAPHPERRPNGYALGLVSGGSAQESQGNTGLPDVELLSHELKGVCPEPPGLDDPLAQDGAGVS

| Ki (Adenosine receptor A3) | Ki (Adenosine receptor A1) | Ki (Adenosine receptor A2a) | SMILES |
| --- | --- | --- | --- |
| 238 nM | 3.6 nM | > 10000 nM | Cc1cc(Cl)cc2[nH]c(-c3cnc4ccccc4n3)nc12 |
| 632 nM | > 10000 nM | > 10000 nM | Clc1ccc2[nH]c(-c3cnc4ccccc4n3)nc2c1 |
|  | 8000 nM | 833 nM | Cc1cccc2[nH]c(-c3cnc4ccccc4n3)nc12 |
| > 1000 nM | > 10000 nM | > 10000 nM | Cc1ccc2[nH]c(-c3cnc4ccccc4n3)nc2c1 |
| 104 nM | 46 nM | 720 nM | CCc1nc2c([nH]1)c1nc(CC)[nH]c1c1nc(CC)[nH]c21 |
| 699 nM | 9.3 nM | > 10000 nM | Clc1cc(Cl)c2[nH]c(-c3cnc4ccccc4n3)nc2c1 |
| 370 nM | > 10000 nM | > 10000 nM | Cc1cc2nc(-c3cnc4ccccc4n3)[nH]c2cc1C |
|  | > 10000 nM | > 10000 nM | Cc1nc2c([nH]1)c1nc(C)[nH]c1c1nc(C)[nH]c21 |
| > 1000 nM | > 10000 nM | > 10000 nM | COc1ccc2nc(-c3cnc4ccccc4n3)[nH]c2c1 |
| > 1000 nM | > 10000 nM | > 10000 nM | c1c[nH]c2nc(-c3cnc4ccccc4n3)nc-2c1 |
| 135 nM | 966 nM | 329 nM | CCc1nc2c([nH]1)c1nc(C)[nH]c1c1nc(CC)[nH]c12 |
| > 1000 nM | > 10000 nM | > 10000 nM | c1ccc2nc(-c3nc4ncncc4[nH]3)cnc2c1 |
|  | > 10000 nM | > 10000 nM | c1ccc(-c2nnc(-c3ccccn3)[nH]2)nc1 |
| 437 nM | > 10000 nM | > 10000 nM | Oc1c2nnnc-2nc2n1CCCS2 |
| 278 nM | 2.1 nM | 3000 nM | CSc1cccc2nc(-c3cnc4ccccc4n3)[nH]c12 |
| 168 nM | > 10000 nM | > 10000 nM | c1ccc2nc(-c3nc4cc[nH]cc-4n3)cnc2c1 |
|  | > 10000 nM | > 10000 nM | CC1CSc2nc3nnnc-3c(O)n21 (configuration not stated) |
| > 1000 nM | > 10000 nM | > 10000 nM | Oc1c2nnnc-2nc2sccn12 |
|  | 0.5 nM | 3440 nM | CCSc1cccc2[nH]c(-c3cnc4ccccc4n3)nc12 |
| 140 nM | 350 nM | > 10000 nM | Clc1cccc2nc(-c3cnc4ccccc4n3)[nH]c12 |
|  |  | > 10000 nM | O=c1[nH]c2ccccc2nc1-c1cc(Cl)[nH]n1 |
| > 1000 nM | > 10000 nM | > 10000 nM | Oc1c2nnnc-2nc2n1CCS2 |
| 147 nM | 496 nM | > 10000 nM | CCc1nc2c3[nH]c(C)nc3c3nc(C)[nH]c3c2[nH]1 |
| 879 nM | > 10000 nM | > 10000 nM | O=[N+]([O-])c1cccc2[nH]c(-c3cnc4ccccc4n3)nc12 |
|  | 50 nM | 561 nM | c1ccc2nc(-c3nc4ccccc4[nH]3)cnc2c1 |
